From paper PMC9569184, “Antigenic molecular mimicry in viral-mediated protection from cancer: the HIV case” (Journal of Translational Medicine, 2022)

What was measured:
HLA-A*02:01 molecule [1] = target: T1, HLA-A*02:01 molecule (Homo sapiens, UniProt P04439, D140Y/D185E/D98H/E176V/E277Q/G131W/G231S/I119V/I121R/I166T/I218V/L300P/L318F/N151K/N90K/P208A/P217A/Q86G/Q94H/R138H/R169H/T345S); test: Peptide binding affinity assay in TAP-deficient T2 cells; assay type: cell-based; conditions: peptide 5, 10, 20, 50 and 100 μM, 16 h at 27°C + 2 h at 37 °C, anti HLA-A2 R-PE, flow cytometry, triplicate
T1 construct: host or cells: T2 (174xCEM.T2) human TAP-deficient cells
Description: Peptide binding affinity to HLA-A*02:01 molecule and BFA decay assays were performed for each candidate peptide. Human TAP-deficient T2 cell line (174xCEM.T2; ATCC CRL 1992™) was purchased from American Type Culture Collection (ATCC; https://www.atcc.org/) and cultured in Iscove's modified Dulbecco's medium (IMDM; Gibco Life Technologies) containing 25 mM HEPES and 2 mM L-Glut, supplemented with 20% fetal bovine serum (FBS; Capricorn Scientific GmbH), 100 IU/ml penicillin and 100 μg/ml streptomycin (Gibco Life Technologies). Cells were maintained at 37 °C in a humidified incubator with 5% CO2. Briefly, T2 were seeded at 3.5 × 10^5 cells per well in 24 well plates and incubated 16 h at 27°C with peptides (final concentrations: 5, 10, 20, 50 and 100 μM) in IMDM serum free medium. The next day, cells have been incubated for additional 2 h at 37 °C. Following incubation, cells were harvested and centrifuged at 200 × g for 5 min. Subsequently, cells were washed twice with phosphate buffered saline (1X PBS; Gibco Life Technologies) and stained with R-PE conjugated anti human HLA-A2 mono-clonal antibody (cat. 343,306; BioLegend), for 30 min at 4 °C, and analyzed with the Attune™ NxT flow cytometer (Thermo Fisher Scientific). […] A fluorescence index (FI) was calculated using the following formula: FI = [mean fluorescence intensity (MFI) sample – MFI background]/MFI background, where MFI background represents the value without peptide. […] Cells were harvested every two hours (T0, T2, T4, T6, T8), washed with phosphate buffered saline (1X PBS; Gibco Life Technologies), stained with anti HLA-A*0201 fluorescent monoclonal antibody (cat. 343,306; BioLegend) and analyzed by flow cytometry. The stability of each peptide bound to HLA-A*02:01 was measured as the DC50 value, which was defined as an estimate of the time required for a 50% reduction of the MFI value at time 0. The DC50 value was calculated according to the formula: MFI at indicated time points/MFI at time 0 × 100. […]

HLA-A*02:01 molecule [2] = target: T1, HLA-A*02:01 molecule; test: BFA decay assay (peptide-MHC dissociation) in T2 cells; assay type: cell-based; conditions: peptide 50 μM, 1X BFA 1 h at 37°C, harvested every two hours T0-T8, flow cytometry, triplicate
Description: Cells were maintained at 37 °C in a humidified incubator with 5% CO2.

Sequence	binding to HLA-A*02:01 (HLA surface expression on T2 cells) (HLA-A*02:01 molecule [1])	50% dissociation value (Thalf), peptide-MHC dissociation kinetics (HLA-A*02:01 molecule [2])
VIAGIVALV	dose-dependent increase in the HLA surface expression on T2 cells over the background	–
VVAGIIALV	dose-dependent increase in the HLA surface expression on T2 cells over the background	–
VVAGIVVLV [TAA derived from the colon ca-associated EPCAM protein]	dose-dependent increase in the HLA surface expression on T2 cells over the background	4 h
